The first assay relates to perfused rat stomach. Kind of assay: perfused rat stomach test (inhibition of gastric acid secretion stimulated via histamine receptors).
Settings: not given
Format: in vivo. The source says:
Certain novel heterocyclic derivatives have now been found which have potent activity as H2-antagonists. […] Certain compounds according to the invention have the advantage of an extended duration of action .
Turning to `CN(C)Cc1cc(CSCCNc2nnnn2C)cs1` [5(b), N-[2-[[5-(dimethylamino)methyl-3-thienylmethyl]thio]ethyl]-1-methyl-lH-tetrazol-5-amine], the ED50 (commonly the dose at which the effect has come halfway, by size or by number of responders) is given as “less than 0.22 mg/kg”.

Staying with this assay, now noted: read-out: ED50.
Turning to `Cn1nnnc1NCCCOc1cccc(CN2CCCCC2)c1` [l(a), 1-Methyl-N-[3-[3-(1-piperidinylmethyl)phenoxy]propyl]-1H-tetrazol-5-amine], the ED50 is less than 0.22 mg/kg.
As for `CN(C)Cc1cccc(OCCCNc2nnnn2C)c1` [l(d), l-methyl-N-[[3-[3-(dimethylamino)methyl]phenoxy]propyl]-lH-tetrazol-5-amine], the ED50 was less than 0.22 mg/kg.
Regarding `CC(C)n1nnnc1NCCCCOc1cccc(CN2CCCCC2)c1` [1(c), l-(l-methylethyl)-N-[4-[3-(1-piperidinylmethyl)phenoxy]butyl]-1H-tetrazol-5-amine], the ED50 was less than 0.22 mg/kg.
With `OCCn1nnnc1NCCCOc1cccc(CN2CCCCC2)c1` [Example 4, 5-[[3-[3-(1-piperidinylmethyl)phenoxy]propyl]amino]-1H-tetrazol-1-(2-ethanol) hydrate (4 : 1)], the ED50 was less than 0.22 mg/kg.
Take `CCCCCCNCc1cccc(OCCCNc2nnnn2C)c1` [7(b), N-[3-[3-[(hexylamino)methyl]phenoxy]propyl]-1-methyl-1H-tetrazol-5-amine hydrate (4:1)]: the ED50 was less than 0.22 mg/kg.

Values taken from patent EP0049049A1, “5-Amino-tetrazole derivatives, processes for their preparation and pharmaceutical compositions containing them” (GLAXO GROUP LIMITED, priority 1980, dated 1982).
